How the values were obtained:
[1] = test system: tobacco aphid, Myrzus Nicotiana Blackman; assay: Spray bioassay against tobacco aphids; format: in vivo; conditions: individual SE groups; 1 mg SE/ml aqueous spray solution; after 24 hours; average of number of tests
Procedure: (§1) Bioassays of the total SE reaction products as well as of the individual groups of SE were conducted using the tobacco aphid, Myrzus Nicotiana Blackman, the greenhouse whitefly, Trialeurodes vaporariorum Westwood, and the sweetpotato whitefly, Bemisia tabaci Gennadius. Aqueous dispersions of sugar ester fractions, obtained from the column chromatographic step or the total reaction SE products were tested generally at a concentration of 1 mg/ml of water. To prepare the sprayable aqueous mixtures, a small amount of methanol (approximately about 20 μl per 10 mg of dried test compound) is added to the dried test compound. This is agitated gently. Then acetone is added to the methanol mixture to yield a concentration of approximately about 0.05 g/ml. This is shaken gently. To obtain a final, sprayable concentration of approximately about 1 mg sucrose ester/ml, about 10 ml of water are added to the mixture. This is then placed into an ultrasonic bath for 20 minutes. The resulting solution is ready to spray. Green-house reared apterous (wingless) aphids, that colonized a green tobacco plant, were removed with a leaf, sprayed, and kept in a closed petri dish. Percent mortality was determined after 24 hours. In a similar manner, bioassays against the green house whitefly or sweetpotato whitefly are conducted by spraying sucrose ester dispersions at 1 mg/ml of water onto whiteflies, trapped on a sticky surface, and determining percent mortality after 2-24 hours. Tables II and III below show the percent mortality of aphids treated by the individual sucrose ester groups and the total SE reaction products.

[2] = test system: greenhouse whitefly, Trialeurodes vaporariorum Westwood; assay: Spray bioassay against the greenhouse whitefly; format: in vivo; conditions: group 2 SE, 1.0 mg/ml spray solution, after 24 hours, average of number of tests
Procedure: as §1

Molecule	% Mortality [1]	% Mortality [2]	mortality at 1000 µg/mL ([2]; Trialeurodes vaporariorum)
monononanoyl sucrose	16%		
didecanoyl sucrose	43%	100%	
diheptanoyl sucrose	88%	100%	
monooctanoyl sucrose	11%		
dinonanoyl sucrose	64%	87%	
monodecanoyl sucrose	47%		
didodecanoyl sucrose	23%	100%	
CCCCCCCC(=O)OCC1OC(OC2(CO)OC(COC(=O)CCCCCCC)C(O)C2O)C(O)C(O)C1O (single isomer, unassigned) [dioctanoyl sucrose]	88%		100%
triheptanoyl sucrose	16%		
tridnanoyl sucrose	13%		
tridecanoyl sucrose	15%		
tridodecanoyl sucrose	15%		
dihexanoyl sucrose		77%	
monoheptanoyl sucrose	17%		
CCCCCCCC(=O)OCC1OC(OC2(COC(=O)CCCCCCC)OC(COC(=O)CCCCCCC)C(O)C2O)C(O)C(O)C1O (single isomer, unassigned) [trioctanoyl sucrose]	27%		
monododecanoyl sucrose	47%		
